Data published in patent US20140011853A1, “SUBSTITUTED 3-(BIPHENYL-3-YL)-8,8-DIFLUORO-4-HYDROXY-1-AZASPIRO[4.5]DEC-3-EN-2-ONES FOR THERAPY” (BAYER INTELLECTUAL PROPERTY GMBH, priority 2011, published 2014).
Several values for one entry are separate records, joined by “and”; a condition that tells them apart may be missing. Identical values can stand only once.

Legend:
Myzus persicae = experiment: Myzus test (MYZUPE spray treatment); format: in vivo; conditions: for pest or weed control at 500 g/ha / effect (kill of aphids): after 6 days, 500 g/ha; for pest or weed control at 500 g/ha: read-out: effect (kill of aphids)
Source text: Disks of Chinese cabbage (Brassica pekinensis) infested by all stages of the green peach aphid (Myzus persicae) are sprayed with an active compound formulation of the desired concentration.

Spodoptera frugiperda = Spodoptera frugiperda test (SPODFR spray treatment); format: in vivo; conditions: 500 g/ha, after 7 days
Phaedon cochleariae = experiment: Phaedon test (PHAECO spray treatment); conditions: for effect (kill of beetle larvae): 500 g/ha, after 7 days
Tetranychus urticae = experiment: Tetranychus test, OP-resistant (TETRUR spray treatment); format: in vivo; conditions: for pest or weed control at 100 g/ha / effect (kill of spider mites): after 6 days; for pest or weed control at 100 g/ha: read-out: effect (kill of spider mites)
human ACC1 [1] = target: T1, human ACC1 (Homo sapiens, UniProt Q13085); experiment: Human ACC1 enzyme assay (ADP-Glo); format: biochemical; conditions: individual measurements; read-out: ACC 1 IC50
T1 construct: FLAG (C); made in house; host or cells: baculovirus-infected insect cells (Hi5)

human ACC1 [2] = experiment: Human ACC1 enzyme assay (ADP-Glo); format: biochemical
KM12 = experiment: Tumour cell proliferation, CellTiter-Glo, 96-hour incubation, KM12; format: cell-based; conditions: Homo sapiens, KM12, 96 h; read-out: KM12 IC50
Experimental: (§1) In accordance with the invention, the substances were tested in cell-based assays for the ability of the substances of inhibiting tumour cell proliferation after a 96-hour incubation with the substance. Cell viability was tested using the CellTiter-Glo® luminescent cell viability assay (Promega). The cells were sown at a density of 2000-5000 cells/well (depending on the cell line) in 100 μl growth medium on 96-well microtiter plates. For each cell line examined, cells were sown on a separate plate to determine the luminescence at t=0 hours and t=96 hours. After overnight incubation at 37° C., the luminescence values for the t=0 samples were determined. The dose plates for the t=96 hours points in time were treated with substances diluted with growth medium. The cells were then incubated at 37° C. for 96 hours, and the luminescence values for the t=96 hours samples were then determined. For data analysis, the t=0 values were subtracted from the t=96 hours values for treated and untreated samples. The differences in luminescence in percent between substance-treated samples and control values were used to determine the growth inhibition in percent.
(§2) The substances were tested in the following cell lines which represent the stated indications in an exemplary manner: […]

PC3 = experiment: Tumour cell proliferation, CellTiter-Glo, 96-hour incubation, PC3; format: cell-based; conditions: Homo sapiens, PC-3, 96 h; read-out: PC3 IC50
Experimental: as §1, §2

H460 = experiment: Tumour cell proliferation, CellTiter-Glo, 96-hour incubation, H460; format: cell-based; conditions: Homo sapiens, NCI-H460, 96 h; read-out: H460 IC50
Experimental: as §1, §2

MCF7 = experiment: Tumour cell proliferation, CellTiter-Glo, 96-hour incubation, MCF7; format: cell-based; conditions: Homo sapiens, MCF7, 96 h; read-out: MCF7 IC50
Experimental: as §1, §2

human ACC2 = human ACC2 (Homo sapiens, UniProt O00763); experiment: Human ACC2 enzyme assay (ADP-Glo); conditions: ACC 2 IC50, individual measurements
[3] = Tetranychus urticae, 144 h, 100 g/ha

Chain of human ACC2 (O00763 27-2458 limits assumed): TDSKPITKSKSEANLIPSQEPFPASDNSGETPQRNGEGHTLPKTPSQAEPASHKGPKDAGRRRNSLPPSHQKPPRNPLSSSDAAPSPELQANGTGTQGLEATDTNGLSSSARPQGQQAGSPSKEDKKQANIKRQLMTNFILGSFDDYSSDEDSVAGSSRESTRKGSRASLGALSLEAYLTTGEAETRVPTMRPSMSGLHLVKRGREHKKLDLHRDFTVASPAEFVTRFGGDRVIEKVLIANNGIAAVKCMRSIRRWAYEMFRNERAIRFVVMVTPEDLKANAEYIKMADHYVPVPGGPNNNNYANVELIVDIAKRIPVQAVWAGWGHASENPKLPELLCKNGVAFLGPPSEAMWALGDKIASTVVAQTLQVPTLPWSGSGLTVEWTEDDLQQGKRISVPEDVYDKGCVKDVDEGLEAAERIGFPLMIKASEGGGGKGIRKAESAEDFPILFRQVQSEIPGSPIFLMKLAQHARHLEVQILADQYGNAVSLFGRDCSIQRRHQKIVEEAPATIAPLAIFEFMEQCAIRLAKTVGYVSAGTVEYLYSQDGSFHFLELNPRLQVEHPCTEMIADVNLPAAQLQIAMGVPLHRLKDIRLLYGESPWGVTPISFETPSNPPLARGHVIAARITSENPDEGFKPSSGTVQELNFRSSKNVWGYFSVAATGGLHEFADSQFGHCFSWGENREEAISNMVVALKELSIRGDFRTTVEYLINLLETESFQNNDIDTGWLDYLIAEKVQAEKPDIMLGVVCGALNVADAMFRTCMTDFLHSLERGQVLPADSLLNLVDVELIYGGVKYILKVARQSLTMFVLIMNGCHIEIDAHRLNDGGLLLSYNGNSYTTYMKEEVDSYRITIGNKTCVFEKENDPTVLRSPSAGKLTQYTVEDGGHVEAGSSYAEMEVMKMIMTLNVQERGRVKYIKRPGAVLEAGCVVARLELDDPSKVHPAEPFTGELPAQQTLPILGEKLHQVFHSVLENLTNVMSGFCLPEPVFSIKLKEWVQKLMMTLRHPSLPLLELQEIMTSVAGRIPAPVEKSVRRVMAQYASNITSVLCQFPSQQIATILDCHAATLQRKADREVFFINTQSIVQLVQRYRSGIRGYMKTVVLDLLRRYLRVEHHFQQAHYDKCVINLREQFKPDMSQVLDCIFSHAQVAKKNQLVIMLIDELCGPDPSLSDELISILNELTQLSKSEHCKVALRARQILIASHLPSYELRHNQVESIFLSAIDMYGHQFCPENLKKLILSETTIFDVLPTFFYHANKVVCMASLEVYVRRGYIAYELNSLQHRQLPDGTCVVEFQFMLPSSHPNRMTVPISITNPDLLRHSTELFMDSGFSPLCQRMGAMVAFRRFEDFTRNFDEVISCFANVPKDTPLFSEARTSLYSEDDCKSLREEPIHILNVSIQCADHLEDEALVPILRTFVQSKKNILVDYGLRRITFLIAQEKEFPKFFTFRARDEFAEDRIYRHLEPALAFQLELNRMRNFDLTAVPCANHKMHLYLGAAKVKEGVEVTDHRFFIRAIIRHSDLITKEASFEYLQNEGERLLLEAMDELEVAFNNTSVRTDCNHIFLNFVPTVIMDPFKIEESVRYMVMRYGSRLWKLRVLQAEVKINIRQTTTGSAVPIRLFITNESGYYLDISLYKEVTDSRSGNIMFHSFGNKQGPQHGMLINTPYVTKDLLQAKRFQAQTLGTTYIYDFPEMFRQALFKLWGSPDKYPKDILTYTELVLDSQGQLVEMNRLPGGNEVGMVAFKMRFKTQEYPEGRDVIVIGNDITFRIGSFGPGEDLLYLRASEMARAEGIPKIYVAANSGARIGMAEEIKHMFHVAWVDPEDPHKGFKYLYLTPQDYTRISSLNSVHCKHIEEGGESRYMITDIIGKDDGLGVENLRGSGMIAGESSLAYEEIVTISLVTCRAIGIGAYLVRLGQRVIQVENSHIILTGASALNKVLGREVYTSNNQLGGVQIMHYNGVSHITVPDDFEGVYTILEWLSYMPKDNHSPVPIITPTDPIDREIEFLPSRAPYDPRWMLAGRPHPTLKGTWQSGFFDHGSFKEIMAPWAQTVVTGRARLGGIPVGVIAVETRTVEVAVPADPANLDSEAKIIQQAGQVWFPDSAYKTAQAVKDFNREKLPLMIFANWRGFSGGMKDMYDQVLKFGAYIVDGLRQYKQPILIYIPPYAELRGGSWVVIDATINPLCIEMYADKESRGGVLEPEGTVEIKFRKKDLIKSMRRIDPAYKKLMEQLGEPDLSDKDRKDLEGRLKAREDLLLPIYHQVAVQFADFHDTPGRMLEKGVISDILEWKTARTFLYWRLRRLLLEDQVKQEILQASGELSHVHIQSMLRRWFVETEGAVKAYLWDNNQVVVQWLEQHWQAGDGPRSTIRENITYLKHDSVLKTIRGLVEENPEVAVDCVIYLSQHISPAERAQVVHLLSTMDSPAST

Cc1ccc(Br)cc1C1=C(O)C2(CCC(F)(F)CC2)NC1=O [Example I-1-a-14, 3-(5-Bromo-2-methylphenyl)-8,8-difluoro-4-hydroxy-1-azaspiro[4.5]dec-3-en-2-one]
pest or weed control at 500 g/ha (Myzus persicae; Myzus persicae, 144 h): 100%

Cc1ccc(-c2ccc(Cl)cc2)cc1C1=C(O)C2(CCC(F)(F)CC2)OC1=O [Example I-2-a-3]
effect (kill of caterpillars) (Spodoptera frugiperda): 100% | effect (kill of aphids) (Myzus persicae): 90% | effect (kill of beetle larvae) (Phaedon cochleariae): 100%

Cc1cc(OCC(F)(F)F)cc(C)c1C1=C(O)C2(CCC(F)(F)CC2)NC1=O [Example I-1-a-8]
pest or weed control at 500 g/ha (Myzus persicae; Myzus persicae, 144 h): 100% | pest or weed control at 100 g/ha (Tetranychus urticae; [3]): 100% | effect (kill of beetle larvae) (Phaedon cochleariae): 100%

CCc1cc(C)cc(C)c1C1=C(OC(=O)C(C)C)C2(CCC(F)(F)CC2)NC1=O [Example I-1-b-1]
pest or weed control at 500 g/ha (Myzus persicae; Myzus persicae, 144 h): 100% | pest or weed control at 100 g/ha (Tetranychus urticae; [3]): 100%

Cc1cc(Cl)cc(C)c1C1=C(O)C2(CCC(F)(F)CC2)NC1=O [Example I-1-a-7]
effect (kill of aphids) (Myzus persicae): 100% | effect (kill of spider mites) (Tetranychus urticae; 100 g/ha): 100% | effect (kill of beetle larvae) (Phaedon cochleariae): 100%

Cc1cc(C)c(C2=C(OC(=O)C(C)C)C3(CCC(F)(F)CC3)OC2=O)cc1C [Example I-2-b-1]
effect (kill of caterpillars) (Spodoptera frugiperda): 83% | pest or weed control at 500 g/ha (Myzus persicae; Myzus persicae, 144 h): 100%

Cc1ccc(-c2ccc(F)cc2)c(C)c1C1=C(O)C2(CCC(F)(F)CC2)OC1=O [Example I-2-a-2]
effect (kill of caterpillars) (Spodoptera frugiperda): 100% | effect (kill of aphids) (Myzus persicae): 100% | effect (kill of spider mites) (Tetranychus urticae; 500 g/ha): 100% | effect (kill of beetle larvae) (Phaedon cochleariae): 100%

Cc1ccc(-c2ccc(F)c(F)c2)cc1C1=C(O)C2(CCC(F)(F)CC2)NC1=O [Example 1-6, 3-(3′,4′-Difluoro-4-methylbiphenyl-3-yl)-8,8-difluoro-4-hydroxy-1-azaspiro[4.5]dec-3-en-2-one]
IC50 (human ACC1 [1]): 133 nM and 107 nM | Selectivity ACC1 vs. ACC2 (mean of the individual measurements ± standard deviation) (human ACC1 [2]): 51.9 ± 22.8 | IC50 (KM12): 257 nM | IC50 (PC3): 158 nM | IC50 (H460): 371 nM | IC50 (MCF7): 45 nM | inhibition at 20 g/ha (Myzus persicae; Myzus persicae, 144 h, 20 g/ha, 6 d, read-out: % activity MYZUPE): 100% | pest or weed control at 500 g/ha (Myzus persicae; Myzus persicae, 144 h): 100% | inhibition at 20 g/ha (Tetranychus urticae; Tetranychus urticae, 144 h, 20 g/ha, 6 d, read-out: % activity TETRUR): 90% | pest or weed control at 100 g/ha (Tetranychus urticae; [3]): 90% | melting point: 223 °C | IC50 (human ACC2): 3870 nM and 8030 nM | effect (kill of beetle larvae) (Phaedon cochleariae): 100% | inhibition at 20 g/ha (Phaedon cochleariae; Phaedon cochleariae, 168 h, read-out: % activity PHAECO): 67%

Cc1cc(C)c(C2=C(O)C3(CCC(F)(F)CC3)OC2=O)c(C)c1 [Example I-2-a-4]
effect (kill of aphids) (Myzus persicae): 100% | effect (kill of beetle larvae) (Phaedon cochleariae): 100%

O=C1NC2(CCC(F)(F)CC2)C(O)=C1c1cc(-c2ccc(Cl)cc2)ccc1Cl [Example 1-4, 3-(4,4′-Dichlorobiphenyl-3-yl)-8,8-difluoro-4-hydroxy-1-azaspiro[4.5]dec-3-en-2-one]
IC50 (human ACC1 [1]): 121 nM and 91 nM | Selectivity ACC1 vs. ACC2 (mean of the individual measurements ± standard deviation) (human ACC1 [2]): 39.7 ± 5.7 | Ratio of IC50s ACC2/ACC1 (respective measurement) (human ACC1 [2]; pairwise, same dilution series): 45.5 and 34.0 | IC50 (KM12): 319 nM | IC50 (PC3): 231 nM | IC50 (H460): 481 nM | IC50 (MCF7): 86 nM | effect (kill of caterpillars) (Spodoptera frugiperda): 100% | pest or weed control at 500 g/ha (Myzus persicae; Myzus persicae, 144 h): 90% | pest or weed control at 100 g/ha (Tetranychus urticae; [3]): 90% | IC50 (human ACC2): 5480 nM and 3110 nM | effect (kill of beetle larvae) (Phaedon cochleariae): 100%
